Source: patent US20220118002A1, “COMPOSITIONS OF MATTER WITH ACTIVITY TO REMOVE LIPOFUSCIN FROM RETINAL CELLS” (Cornell University, priority 2019, published 2022)

Tests used:
[1] = test system: Human retinal pigment epithelium (RPE) cultured cells, ARPE-19, pre-loaded with A2E; experiment: A2E (lipofuscin bisretinoid) removal assay, fluorescence plate reader; format: cell-based; settings: for removal of lipofuscin bisretinoids (A2E) from retinal cells: 4 mM cyclodextrin, 48 hrs, cells pre-loaded with 5 μM A2E, FIG. 2
[2] = test system: patients diagnosed with Stargardt or AMD; settings: cited from earlier work
formation of new LB = settings: oral, animals; cited from earlier work
[3] = test system: lipofuscin and A2E accumulation in ABCA4-/- mouse; settings: cited from earlier work
[4] = test system: Epithelial cells pre-loaded with A2E; experiment: Stoichiometric distribution of A2E between cell lysates and supernatants; format: cell-based; settings: 12.5 mM, 4 hrs, serum free media, FIG. 7
A2E-loaded RPE cultures = experiment: Fluorescence microscopy of LB removal from A2E-loaded cells; format: cell-based, human
Description: […] At the end of the incubation period, fluorescence of A2E inside the cells was monitored by fluorescence microscopy at 100× magnification. Cells were stained with Hoechst stain to visualize nuclei of cells that contained A2E.
FIGS. 4A-4B show the removal of LB with methyl β-Cyclodextrin as determined by fluorescence microscopy. […] Cells were stained with Hoechst stain to visualize nuclei. Fluorescence of A2E inside the cells (unextracted cells) was monitored by fluorescence microscopy at 100× magnification.
Untreated A2E-loaded RPE cultures served as negative controls. A2E-loaded RPE cultures were treated with 7.5 mM of the indicated β-Cyclodextrin compound for 48 hrs. For each cyclodextrin, three separate lots were tested. Lipofuscin (yellow) is visualized by fluorescence microscopy (488 nm/600 nm) using low magnification (10×) objective to capture a large number of cells.
Fluorescence microscopy: LBs are auto-fluorescent molecules on account of the abundant conjugated double bonds in their hydrophobic arms. When excited at 430 nm (blue light) they emit yellow-orange fluorescence peaking at 610 nm. The intensity of the fluorescence is proportional to their amounts. Hoechst blue fluorescence dye was used to stain the nucleus of cells treated with cyclodextrins. […] Each dose was assayed in triplicated and ten random fields were evaluated per well. […]

[5] = test system: lipofuscin (LB) in RPE of DKO mice (ABCA4 and RDH8 mutations); experiment: In vivo LB removal from eyes by intravitreal injection, RPE-eyecup autofluorescence; set-up: species or system mouse; settings: FIG. 9; for reduction of the amount of lipofuscin vs vehicle (significance, unpaired T-test): two intravitreal injections one week apart, same doses; for total LB extracted from retinas: two intravitreal injections one week apart: 2 μl 100 mM MβCD, 1 μl 500 mM HPβCD or SBE-βCD, eyes harvested 4 days after second injection
[6] = test system: photoreceptor layer (ONL) / retina; experiment: Retina morphometry and histology (ONL thickness, H&E cross sections); format: in vivo, mouse; settings: intravitreal treatment
Description: Morphometric analysis comparing the thickneness of the outer nuclear layer (ONL) in control and SBE-BCD treated animals was performed. The layer of photoreceoptors was selected using Photoshop and ImageJ and thickness was measured.
Stitched images were created using ZEN Blue (Zeiss) from individual fields obtained by color microscopy of hematoxylin and eosin stained paraffin-embedded cross sections of retinas from mice treated with 1 μl vehicle or Sulfo Butyl β-Cyclodextrin.
2 μl 100 mM M-βCD; 1 μl 500 mM HP-3CD; or 1 μl 500 mM SBE-βCD were injected twice, one-week apart, in both eyes and 2 μl H2O were injected intravitreally to age matched controls. To evaluate the visual toxicity of the treatment, the Spatial Frequency response (SF) was determined just before each injection and before sacrificing the mouse, i.e., four days after the second injection. SF is a cone-mediated visual response measured using an OptoMotry (OMT) chamber. Briefly, the mouse standing unrestrained on an elevated platform is surrounded by computer monitors that create a virtual cylinder with black bars on white background.

visual acuity of mice = experiment: Visual acuity, Spatial Frequency (SF) response by OptoMotry; settings: intravitreal, twice, one week apart, both eyes: 2 μl 100 mM M-βCD, 1 μl 500 mM HP-βCD or SBE-βCD, FIGS. 10A-10B
[7] = test system: lipofuscin in RPE cells of monkey retinas; settings: oral, one year; cited from earlier work
[8] = long-term oral administration, ABCA4-/-

OC[C@H]1O[C@@H]2O[C@H]3[C@H](O)[C@@H](O)[C@@H](O[C@H]4[C@H](O)[C@@H](O)[C@@H](O[C@H]5[C@H](O)[C@@H](O)[C@@H](O[C@H]6[C@H](O)[C@@H](O)[C@@H](O[C@H]7[C@H](O)[C@@H](O)[C@@H](O[C@H]8[C@H](O)[C@@H](O)[C@@H](O[C@H]9[C@H](O)[C@@H](O)[C@@H](O[C@H]1[C@H](O)[C@H]2O)O[C@@H]9CO)O[C@@H]8CO)O[C@@H]7CO)O[C@@H]6CO)O[C@@H]5CO)O[C@@H]4CO)O[C@@H]3CO [gamma-cyclodextrin, Gamma-Cyclodextrin, reference compound]
removal of lipofuscin bisretinoids (A2E) from retinal cells [1]: did not extract A2E

CC1=C(/C=C/C(C)=C/C=C/C(C)=C/C(=O)Nc2ccc(O)cc2)C(C)(C)CCC1 [fenretinide]
side effects ([2]; oral): night blindness, and mild reversible skin-dryness | therapeutic effect in patients ([2]; patients already diagnosed with Stargardt or AMD): did not confer a significant therapeutic effect | formation of new LB (formation of new LB): effective at slowing down the formation of new LB

[2H]C([2H])([2H])C(/C=C/C=C(C)/C=C/C1=C(C)CCCC1(C)C)=C\COC(C)=O [ALK-001, deuterated vitamin A]
visual function by electroretinogram ([3]; ABCA4-/- mouse model): prevented the gradual loss of visual function | reduction of accumulation of A2E [3, 8]: 80% | reduction of accumulation of lipofuscin [3, 8]: 70%

OC[C@H]1O[C@@H]2O[C@H]3[C@H](O)[C@@H](O)[C@@H](O[C@H]4[C@H](O)[C@@H](O)[C@@H](O[C@H]5[C@H](O)[C@@H](O)[C@@H](O[C@H]6[C@H](O)[C@@H](O)[C@@H](O[C@H]7[C@H](O)[C@@H](O)[C@@H](O[C@H]1[C@H](O)[C@H]2O)O[C@@H]7CO)O[C@@H]6CO)O[C@@H]5CO)O[C@@H]4CO)O[C@@H]3CO [α-Cyclodextrin, reference compound]
removal of lipofuscin bisretinoids (A2E) from retinal cells [1]: did not extract A2E

COC[C@H]1O[C@@H]2O[C@H]3[C@H](OC)[C@@H](OC)[C@@H](O[C@H]4[C@H](OC)[C@@H](OC)[C@@H](O[C@H]5[C@H](OC)[C@@H](OC)[C@@H](O[C@H]6[C@H](OC)[C@@H](OC)[C@@H](O[C@H]7[C@H](OC)[C@@H](OC)[C@@H](O[C@H]8[C@H](OC)[C@@H](OC)[C@@H](O[C@H]1[C@H](OC)[C@H]2OC)O[C@@H]8COC)O[C@@H]7COC)O[C@@H]6COC)O[C@@H]5COC)O[C@@H]4COC)O[C@@H]3COC [2,3,6-tri-O-methyl-β-Cyclodextrin, Heptakis (2,3,6-tri-O-Methyl) β-Cyclodextrin, reference compound]
removal of lipofuscin bisretinoids (A2E) from retinal cells [1]: not effective in promoting LB removal

Methyl β-Cyclodextrin
removal of lipofuscin bisretinoids (A2E) from retinal cells [1]: promoted removal of lipofuscin bisretinoids from retinal cells | dose that removed most of the detectable LB deposits ([1]; 24 hrs, FIG. 3A): 10 to 20 µM | dose dependence of A2E removal ([1]; 24 hrs, increasing doses, FIG. 3A): dose-dependent | A2E removal compared to untreated control at lowest tested dose ([1]; 24 hrs, lowest tested dose, FIG. 3A): about 75% | distribution of A2E fluorescence between cells and supernatants [4]: all A2E fluorescence that was absent from cells was present in supernatants | localisation of LB after treatment (A2E-loaded RPE cultures; 7.5 mM, 100× objective, FIGS. 4A-4B): LB was expelled outside the cells | LB fluorescence in cells after treatment (A2E-loaded RPE cultures; 24 hours, 100× magnification, FIG. 3B): completely devoid of the turquoise fluorescence | reduction of the amount of lipofuscin vs vehicle (significance, unpaired T-test) [5]: did not significantly reduce the amount of lipofuscin | total LB extracted from retinas [5]: 18.2%

Sulfobutyl ether β-Cyclodextrin [Sulfo Butyl Ether β-Cyclodextrin]
removal of lipofuscin bisretinoids (A2E) from retinal cells [1]: promoted removal of lipofuscin bisretinoids from retinal cells | overall structure of the retinas ([6]; H&E cross sections, FIG. 11B): remained intact | integrity of the photoreceptor layer (ONL) ([6]; ONL thickness, FIG. 11A): did not compromise the integrity of the photoreceptor layer (ONL) | visual acuity (Spatial Frequency response) (visual acuity of mice): well tolerated showing indistinguishable SF from water treated and non-injected negative controls | distribution of A2E fluorescence between cells and supernatants [4]: all A2E fluorescence that was absent from cells was present in supernatants | reduction of the amount of lipofuscin vs vehicle (significance, unpaired T-test) [5]: effective | total LB extracted from retinas [5]: 42.6%

CC(O)COC[C@H]1O[C@@H]2O[C@H]3[C@H](O)[C@@H](O)[C@@H](O[C@H]4[C@H](O)[C@@H](O)[C@@H](O[C@H]5[C@H](O)[C@@H](O)[C@@H](O[C@H]6[C@H](O)[C@@H](O)[C@@H](O[C@H]7[C@H](O)[C@@H](O)[C@@H](O[C@H]8[C@H](O)[C@@H](O)[C@@H](O[C@H]1[C@H](O)[C@H]2O)O[C@@H]8COCC(C)O)O[C@@H]7COCC(C)O)O[C@@H]6COCC(C)O)O[C@@H]5COCC(C)O)O[C@@H]4COCC(C)O)O[C@@H]3COCC(C)O (stereo partly drawn) [2-Hydroxy Propyl β-Cyclodextrin, 2-hydroxypropyl beta-Cyclodextrin]
removal of lipofuscin bisretinoids (A2E) from retinal cells [1]: promoted removal of lipofuscin bisretinoids from retinal cells | visual acuity (Spatial Frequency response) (visual acuity of mice): some animals showing significant impairment of visal response | distribution of A2E fluorescence between cells and supernatants [4]: all A2E fluorescence that was absent from cells was present in supernatants | reduction of the amount of lipofuscin vs vehicle (significance, unpaired T-test) [5]: effective

COC[C@H]1O[C@@H]2O[C@H]3[C@H](O)[C@@H](OC)[C@@H](O[C@H]4[C@H](O)[C@@H](OC)[C@@H](O[C@H]5[C@H](O)[C@@H](OC)[C@@H](O[C@H]6[C@H](O)[C@@H](OC)[C@@H](O[C@H]7[C@H](O)[C@@H](OC)[C@@H](O[C@H]8[C@H](O)[C@@H](OC)[C@@H](O[C@H]1[C@H](O)[C@H]2OC)O[C@@H]8COC)O[C@@H]7COC)O[C@@H]6COC)O[C@@H]5COC)O[C@@H]4COC)O[C@@H]3COC [2,6-di-O-methyl-β-Cyclodextrin, Heptakis (2,6-di-O-Methyl) β-Cyclodextrin, reference compound]
removal of lipofuscin bisretinoids (A2E) from retinal cells [1]: not effective in promoting LB removal

OC[C@H]1O[C@@H]2O[C@H]3[C@H](O)[C@@H](O)[C@@H](O[C@H]4[C@H](O)[C@@H](O)[C@@H](O[C@H]5[C@H](O)[C@@H](O)[C@@H](O[C@H]6[C@H](O)[C@@H](O)[C@@H](O[C@H]7[C@H](O)[C@@H](O)[C@@H](O[C@H]8[C@H](O)[C@@H](O)[C@@H](O[C@H]1[C@H](O)[C@H]2O)O[C@@H]8CO)O[C@@H]7CO)O[C@@H]6CO)O[C@@H]5CO)O[C@@H]4CO)O[C@@H]3CO [β-Cyclodextrin, reference compound]
removal of lipofuscin bisretinoids (A2E) from retinal cells [1]: did not extract A2E

COCCO[C@@H]1c2ccn3c(C)c(C)nc3c2N[C@H](c2ccccc2)[C@H]1O [soprazan]
elimination of lipofuscin from RPE cells [7]: Successful elimination of lipofuscin from RPE cells
